Data: ChEMBL document CHEMBL3885881, “DrugMatrix”

Species: Rattus norvegicus
Assay: DrugMatrix - Regimen: Daily Repeat
Type: toxicity, organism-based, Sprague-Dawley
Set-up: regimen Daily Repeat, gender Male, age 6-8 weeks
Conditions: in vivo, po, route oral GAVAGE, […]; for ABSOLUTE BASOPHIL / ABSOLUTE EOSINOPHIL / ABSOLUTE LYMPHOCYTE / ABSOLUTE MONOCYTE / ABSOLUTE SEGMENTED NEUTROPHIL / BASOPHIL / EOSINOPHIL / ERYTHROCYTE COUNT / HEMATOCRIT / HEMOGLOBIN / LEUKOCYTE COUNT / LYMPHOCYTE / MEAN CORPUSCULAR HEMOGLOBIN / MEAN CORPUSCULAR HEMOGLOBIN CONCENTRATION / MEAN CORPUSCULAR VOLUME / MONOCYTE / NEUTROPHIL / NUCLEATED RED BLOOD CELLS / PLATELET COUNT: tissue Blood; for ALANINE AMINOTRANSFERASE / ALBUMIN / ALKALINE PHOSPHATASE / ASPARTATE AMINOTRANSFERASE / BLOOD UREA NITROGEN / CARBON DIOXIDE / CHLORIDE / CHOLESTEROL / CREATINE PHOSPHOKINASE / CREATININE / GLUCOSE / LACTATE DEHYDROGENASE / LIPASE / PHOSPHORUS / POTASSIUM / SODIUM / TOTAL BILIRUBIN / TOTAL PROTEIN / URIC ACID: tissue Plasma
[1] = 30 mg/kg, 120 h, dose level Low, time 5 day
[2] = 1093 mg/kg, 72 h, dose level High, time 3 day
[3] = 1093 mg/kg, 120 h, dose level High, time 5 day

`CCC(C)n1ncn(-c2ccc(N3CCN(c4ccc(OCC5COC(Cn6cncn6)(c6ccc(Cl)cc6Cl)O5)cc4)CC3)cc2)c1=O` (centres undefined) [ITRACONAZOLE] was tested, and the “ABSOLUTE BASOPHIL” value [1] was 0 CELLS/uL, the “ABSOLUTE EOSINOPHIL” value [1] was 154 CELLS/uL and the “ABSOLUTE LYMPHOCYTE” value [1] was 10619.33 CELLS/uL. The “ABSOLUTE MONOCYTE” value [1] was 425.67 CELLS/uL, the “ABSOLUTE SEGMENTED NEUTROPHIL” value [1] was 634.33 CELLS/uL and the BASOPHIL [1] was 0%. The EOSINOPHIL [1] was 1.33%, the “ERYTHROCYTE COUNT” value [1] was 5.97 x10E6/uL and the HEMATOCRIT [1] was 38.27%. The HEMOGLOBIN [1] was 14.43 G/DL, the “LEUKOCYTE COUNT” value [1] was 11.83 x10E3/uL and the LYMPHOCYTE [1] was 89.67%. For the same compound, the “MEAN CORPUSCULAR HEMOGLOBIN” value [1] was 24.2 pg, the “MEAN CORPUSCULAR HEMOGLOBIN CONCENTRATION” value [1] was 37.77 G/DL and the “MEAN CORPUSCULAR VOLUME” value [1] was 64.1 fL. The MONOCYTE [1] was 3.67%, the NEUTROPHIL [1] was 5.33% and the “NUCLEATED RED BLOOD CELLS” value [1] was 0 /100WBC. The “PLATELET COUNT” value [1] was 1278.33 x10E3/uL, the “ALANINE AMINOTRANSFERASE” value [1] was 59.67 u/L and the ALBUMIN [1] was 4.03 G/DL. For the same compound, the “ALKALINE PHOSPHATASE” value [1] was 472.33 u/L, the “ASPARTATE AMINOTRANSFERASE” value [1] was 77 u/L and the “BLOOD UREA NITROGEN” value [1] was 9 mg/dL. The “CARBON DIOXIDE” value [1] was 23.67 mmol/L, the CHLORIDE [1] was 102.67 MEQ/L and the CHOLESTEROL [1] was 50.33 mg/dL. For the same compound, the “CREATINE PHOSPHOKINASE” value [1] was 199.67 u/L, the CREATININE [1] was 0.12 mg/dL and the GLUCOSE [1] was 162.67 mg/dL. The “LACTATE DEHYDROGENASE” value [1] was 92.67 u/L, the LIPASE [1] was 6.33 u/L and the PHOSPHORUS [1] was 11.77 mg/dL. For the same compound, the POTASSIUM [1] was 6.35 MEQ/L, the SODIUM [1] was 142.93 MEQ/L and the “TOTAL BILIRUBIN” value [1] was 0.13 mg/dL. The “TOTAL PROTEIN” value [1] was 5.97 G/DL, the “URIC ACID” value [1] was 1.6 mg/dL and the “ABSOLUTE BASOPHIL” value [2] was 0 CELLS/uL. For the same compound, the “ABSOLUTE EOSINOPHIL” value [2] was 143 CELLS/uL, the “ABSOLUTE LYMPHOCYTE” value [2] was 12564.33 CELLS/uL and the “ABSOLUTE MONOCYTE” value [2] was 467.67 CELLS/uL. The “ABSOLUTE SEGMENTED NEUTROPHIL” value [2] was 825 CELLS/uL, the BASOPHIL [2] was 0% and the EOSINOPHIL [2] was 1%. For the same compound, the “ERYTHROCYTE COUNT” value [2] was 6.06 x10E6/uL, the HEMATOCRIT [2] was 38.43% and the HEMOGLOBIN [2] was 14.67 G/DL. For the same compound, the “LEUKOCYTE COUNT” value [2] was 14 x10E3/uL, the LYMPHOCYTE [2] was 89.67% and the “MEAN CORPUSCULAR HEMOGLOBIN” value [2] was 24.23 pg. The “MEAN CORPUSCULAR HEMOGLOBIN CONCENTRATION” value [2] was 38.17 G/DL, the “MEAN CORPUSCULAR VOLUME” value [2] was 63.43 fL and the MONOCYTE [2] was 3.33%. For the same compound, the NEUTROPHIL [2] was 6%, the “NUCLEATED RED BLOOD CELLS” value [2] was 0 /100WBC and the “PLATELET COUNT” value [2] was 1165.33 x10E3/uL. The “ALANINE AMINOTRANSFERASE” value [2] was 57 u/L, the ALBUMIN [2] was 4 G/DL and the “ALKALINE PHOSPHATASE” value [2] was 535.67 u/L. For the same compound, the “ASPARTATE AMINOTRANSFERASE” value [2] was 71 u/L, the “BLOOD UREA NITROGEN” value [2] was 10.67 mg/dL and the “CARBON DIOXIDE” value [2] was 22.67 mmol/L. The CHLORIDE [2] was 102.33 MEQ/L, the CHOLESTEROL [2] was 50.33 mg/dL and the “CREATINE PHOSPHOKINASE” value [2] was 230.33 u/L. For the same compound, the CREATININE [2] was 0.12 mg/dL, the GLUCOSE [2] was 165 mg/dL and the “LACTATE DEHYDROGENASE” value [2] was 54.33 u/L. For the same compound, the LIPASE [2] was 9.33 u/L, the PHOSPHORUS [2] was 10.63 mg/dL and the POTASSIUM [2] was 6.01 MEQ/L. The SODIUM [2] was 142.3 MEQ/L, the “TOTAL BILIRUBIN” value [2] was 0.17 mg/dL and the “TOTAL PROTEIN” value [2] was 5.87 G/DL. For the same compound, the “URIC ACID” value [2] was 1.77 mg/dL, the “ABSOLUTE BASOPHIL” value [3] was 0 CELLS/uL and the “ABSOLUTE EOSINOPHIL” value [3] was 139 CELLS/uL. The “ABSOLUTE LYMPHOCYTE” value [3] was 10102.67 CELLS/uL, the “ABSOLUTE MONOCYTE” value [3] was 609.67 CELLS/uL and the “ABSOLUTE SEGMENTED NEUTROPHIL” value [3] was 1115.33 CELLS/uL. For the same compound, the BASOPHIL [3] was 0%, the EOSINOPHIL [3] was 1% and the “ERYTHROCYTE COUNT” value [3] was 5.79 x10E6/uL. For the same compound, the HEMATOCRIT [3] was 36.73%, the HEMOGLOBIN [3] was 14.13 G/DL and the “LEUKOCYTE COUNT” value [3] was 11.97 x10E3/uL. The LYMPHOCYTE [3] was 84.67%, the “MEAN CORPUSCULAR HEMOGLOBIN” value [3] was 24.4 pg and the “MEAN CORPUSCULAR HEMOGLOBIN CONCENTRATION” value [3] was 38.47 G/DL. The “MEAN CORPUSCULAR VOLUME” value [3] was 63.43 fL, the MONOCYTE [3] was 5% and the NEUTROPHIL [3] was 9.33%. The “NUCLEATED RED BLOOD CELLS” value [3] was 0 /100WBC, the “PLATELET COUNT” value [3] was 1189.33 x10E3/uL and the “ALANINE AMINOTRANSFERASE” value [3] was 78.67 u/L. The ALBUMIN [3] was 4.17 G/DL, the “ALKALINE PHOSPHATASE” value [3] was 402 u/L and the “ASPARTATE AMINOTRANSFERASE” value [3] was 84.33 u/L. For the same compound, the “BLOOD UREA NITROGEN” value [3] was 10.67 mg/dL, the “CARBON DIOXIDE” value [3] was 22.33 mmol/L and the CHLORIDE [3] was 103.67 MEQ/L. For the same compound, the CHOLESTEROL [3] was 67 mg/dL, the “CREATINE PHOSPHOKINASE” value [3] was 522 u/L and the CREATININE [3] was 0.21 mg/dL. The GLUCOSE [3] was 181 mg/dL, the “LACTATE DEHYDROGENASE” value [3] was 126 u/L and the LIPASE [3] was 17.33 u/L. For the same compound, the PHOSPHORUS [3] was 11.7 mg/dL, the POTASSIUM [3] was 5.88 MEQ/L and the SODIUM [3] was 143.47 MEQ/L. The “TOTAL BILIRUBIN” value [3] was 0.13 mg/dL, the “TOTAL PROTEIN” value [3] was 5.83 G/DL and the “URIC ACID” value [3] was 2 mg/dL.
